# What was measured:
# [1] = cited from earlier work
# nodose C-fiber = settings: guinea pigs; cited from earlier work
# rats = settings: cited from earlier work
# C57BL/6J mice = test: Brief-exposure gustometer lick test after oral swabbing (or IP injection) of briefly anesthetized mice; type: in vivo, mouse
# From the text: The methods were adapted from those described by Vandenbeuch et al [Vandenbeuch, A., et al., Postsynaptic P2X3-containing receptors in gustatory nerve fibres mediate responses to all taste qualities in mice. J Physiol 593:1113-1125; 2015] who, (a) in anesthetized mice, flowed AF-353 over the anterior tongue then recorded gustatory nerve responses to tastants [see also (Larson, E. D., et al., Function, innervation, and neurotransmitter signaling in mice lacking Type-II taste cells. eNeuro 7; 2020)] and (b), in awake mice, injected AF-353 intraperitoneally then measured licking for the sweetener SC-45647. Here, we applied AF-353 to the oral cavity of briefly anesthetized mice then measured licking using procedures similar to those of our past work [Med Associates inc. Products: Gustometry, med-associates.com/product/davis-rig-for-mouse-16-bottle/. 2022; Taruno, A., et al., CALHM1 ion channel mediates purinergic neurotransmission of sweet, bitter and umami tastes. Nature 495:223-226; 2013; Tordoff, M. G., et al., Normal taste acceptance and preference of PANX1 knockout mice. Chem. Senses 2015 May 18. pii: bjv025; 2015; Tordoff, M. G.; Aleman, T. R.; McCaughey, S. A. Heightened avidity for trisodium pyrophosphate in mice lacking Taslr3. Chem. Senses 40:53-59; 2014; Tordoff, M. G.; Ellis, H. T. Taste dysfunction in BTBR mice due to a mutation of Itpr3, the inositol triphosphate receptor 3 gene. Physiol. Genomics 45:834-855; 2013] and other investigators [Glendinning, J. I.; Gresack, J.; Spector, A. C. A high-throughput screening procedure for identifying mice with aberrant taste and oromotor function. Chem. Senses 27:461-474; 2002].
# Groups of 16 male C57BL/6J mice aged 7 weeks old were purchased from The Jackson Laboratory (strain ID number 000664). They were maintained in a vivarium at 23° C. on a 12 h:12 h light/dark cycle, with lights off at 1800. When not being tested, mice were housed alone in plastic tub cages (26.5×17×12 cm) with a stainless-steel grid lid and wood chips scattered on the floor [see (Tordoff, M. G.; Bachmanov, A. A. Monell mouse taste phenotyping project. Monell Chemical Senses Center, monell.org/MMTPP. 2001) for details]. The mice ate pelleted chow (Teklad 8601) and drank deionized water according to the regimen described below. Each mouse was weighed daily, immediately before it was placed into a gustometer.
# Brief-exposure taste acceptance was assessed using MS160-Mouse gustometers manufactured by DiLog Instruments (now available from Med Associates). Each gustometer consists of a 14.5×30×15 cm test chamber with a motorized shutter that controls access to a taste solution. Bottles of taste solution are mounted on a rack that is precisely positioned by a stepper motor so that any one of eight different taste solutions can be presented to the mouse. The drinking spout of each bottle is part of a high-frequency alternating current contact circuit, so that each lick the mouse makes is detected and recorded. Details of construction and other technical information are available elsewhere [Med Associates inc. Products: Gustometry, med-associates.com/product/davis-rig-for-mouse-16-bottle/. 2022; Sheridan, C. Merck stakes out ‘irritable’ neuron territory with $1.25 billion. Nature biotechnology 34:900; 2016].
# To train the mice to sample taste solutions, they were first deprived of water for 22.5 h, and then placed into a gustometer with its shutter open. During this first training session, each mouse had continuous access to water for 30 min. It was then returned to its home cage and given water for 1 h. During the following two days, this procedure was repeated, except the shutter allowing access to water was closed 5 sec after each time the mouse began to lick, and was re-opened after a 7.5-sec interval. After 20 min, the mouse was returned to its home cage and given water for 1 h. By the second test using these procedures, nearly all mice had learned to obtain water during the 5-sec access periods. […]
# [2] = 0.3, 1 or 3 mM swabbed orally for 4 min versus vehicle
# [3] = oral swabbing for 2, 4 or 8 min versus no swabbing
# Experimental for humans: In some experiments, we used a regimen of two 1-minute rinses with 500 μM AF-353 composition (i.e., oral topical administration).
# In this study, we tested an AF-353 composition in humans as an oral rinse after receiving IRB approval for its use. First, we tested rinsing 100 μM (0.04 mg/mL) orally for 2 minutes as 4×30 sec rinses with expectoration. We tested before and after sour, bitter, sweet, and salty solutions (quinine HCl, NaCl, Praziquantal, sucrose, CO2).
# Next, we tested rinsing 500 μM (0.2 mg/mL) AF-353 for two minutes, in 2×1 min increment rinses with expectoration.
structure (smiles),measurement,setting,value
"COc1cc(C(C)C)c(Oc2cnc(N)nc2N)cc1I [AF-353, 5-[5-iodo-4-methoxy-2-(1-methylethyl)phenoxy]-2,4-pyrimidinediamine]",half-life,[1]; in rat,1.63 h
same,oral bioavailability,"[1]; rat, in vivo, po",high
same,CNS penetration,"[1]; rat, in vivo",good
same,bronchoconstriction-induced nodose C-fiber discharge,nodose C-fiber,blocks
same,"intensity of sour, bitter, sweet and salty solutions after treatment (moderate before treatment)","humans; 100 μM (0.04 mg/mL), 2 minutes as 4×30 sec rinses, four participants",mild
same,tastes after treatment,"humans; 500 μM (0.2 mg/mL), 2×1 min rinses with expectoration",eliminated
same,recovery from abolishment of taste,"humans; 500 μM rinse, at 2 hours after rinsing",100 % of normal
same,recovery of taste perception faster in some subjects,"humans; 500 μM rinse, some subjects",about 20 minutes
same,ability to taste fully recovered after,humans; after oral rinse,1.5 to 3 h
same,recovery of the ability to taste began,humans; after oral rinse,≤ 60 min
same,"taste blockade (sweet, sour, salty, bitter (Quinine and Praziquantel))","humans; topical oral rinse and expectoration, 4 people",completely blocked taste
same,"negative side effects (oral numbing, tingling, strange oral sensations)",humans; topical oral rinse in humans,did not cause numbness or any strange sensations
same,block of aroma or carbonation irritation,"humans; topical oral rinse, 4 people",did not block
same,pain caused by bone cancer,rats,attenuate
same,"licking for 1 mM QHCl, oral versus intraperitoneal administration of the same dose",C57BL/6J mice; 0.41 μmol/mouse,significantly more after AF-353 administered orally
same,licking for 1 mM QHCl versus DMSO vehicle,C57BL/6J mice; 0.41 μmol/mouse by oral swabbing or IP injection (either route),licked significantly more
same,effect on licking for capsaicin (ANOVA),C57BL/6J mice; 3 mM for 4 min,neither a main effect of AF-353 nor an AF-353× concentration interaction
same,licking of the hedonically positive tastant saccharin relative to DMSO vehicle,C57BL/6J mice; 3 mM for 4 min,licked less
same,licking of hedonically negative tastants relative to DMSO vehicle,"C57BL/6J mice; 3 mM for 4 min, all (QHCl, urea, denatonium, SOA, Tenofovir Alafenamide, Praziquantel, Ferroquine, citric acid) except NaCl and capsaicin",licked more
same,licking for 1 mM QHCl after oral treatment versus either vehicle,C57BL/6J mice; 3 mM in DMSO or alcohol+Tween,licked significantly more
same,influence of the vehicle composition (DMSO or alcohol+Tween) on licking rates,"C57BL/6J mice; 3 mM oral swab, water or 1 mM QHCl",did not influence licking rates
same,lick rates for 1 mM QHCl compared with deionized water,C57BL/6J mice; 3 mM swabbed orally for 4 min,statistically indistinguishable
same,licking after oral swabbing relative to oral swabbing with DMSO vehicle (FIG. 4A),"C57BL/6J mice; 3 mM, 0.41 μmol/mouse, route experiment",reduced licking
same,1 mM QHCl licking after 60-min interval relative to 10- and 30-min intervals,"C57BL/6J mice; 3 mM, 4 min",significantly reduced
same,"lick rates for 1 mM QHCl, 10-min versus 30-min swab-test interval","C57BL/6J mice; 3 mM, 4 min",no difference
same,effectiveness at 90 min after oral treatment,"C57BL/6J mice; 3 mM, 4 min, 1 mM QHCl licking",completely dissipated
same,lick rates for water by swab-test interval,"C57BL/6J mice; 3 mM, 4 min, interval 10, 30, 60 or 90 min",no effect
same,lick rate for 1 mM QHCl,C57BL/6J mice; [2],concentration-related increase
same,lick rates for deionized water,C57BL/6J mice; [2],no significant effects
same,Licks to water (mean ± SE licks made in 10-sec tests),"C57BL/6J mice; Capsaicin experiment, 3 mM oral swab",50 ± 9
same,Licks to water (mean ± SE licks made in 10-sec tests),"C57BL/6J mice; Citric acid experiment, 3 mM oral swab",44 ± 4
same,Licks to water (mean ± SE licks made in 10-sec tests),"C57BL/6J mice; Denatonium experiment, 3 mM oral swab",53 ± 3
same,Licks to water (mean ± SE licks made in 10-sec tests),"C57BL/6J mice; Ferroquine experiment, 3 mM oral swab",47 ± 3
same,Licks to water (mean ± SE licks made in 10-sec tests),"C57BL/6J mice; NaCl experiment, 3 mM oral swab",57 ± 5
same,Licks to water (mean ± SE licks made in 10-sec tests),"C57BL/6J mice; Praziquantel experiment, 3 mM oral swab",52 ± 3
same,Licks to water (mean ± SE licks made in 10-sec tests),"C57BL/6J mice; QHCl experiment, 3 mM oral swab",56 ± 4
same,Licks to water (mean ± SE licks made in 10-sec tests),"C57BL/6J mice; Saccharin experiment, 3 mM oral swab",14 ± 2
same,Licks to water (mean ± SE licks made in 10-sec tests),"C57BL/6J mice; Tenofovir experiment, 3 mM oral swab",56 ± 2
same,Licks to water (mean ± SE licks made in 10-sec tests),"C57BL/6J mice; Urea experiment, 3 mM oral swab",43 ± 5
same,lick rates for 1 mM QHCl,C57BL/6J mice; [3],increased monotonically
same,lick rates for deionized water,C57BL/6J mice; [3],reduced lick rates for deionized water significantly
